Test results from US20120122860A1, “SOLID FORMS OF SULFONAMIDES AND AMINO ACIDS” (Plexxikon, Inc., priority 2009, published 2012).

What was measured:
B-Raf = B-Raf (Homo sapiens, UniProt P15056); assay: Kinase activity assay, B-Raf; type: biochemical; settings: read-out: activity toward kinase B-Raf, IC50
B-Raf V600E = B-Raf V600E (Homo sapiens, UniProt P15056, V600E); assay: Kinase activity assay, B-Raf V600E; type: biochemical; settings: read-out: activity toward kinase B-Raf V600E, IC50
Kit = Kit (Homo sapiens, UniProt P10721); assay: Kinase activity assay, Kit
A-Raf = biological target: T1, A-Raf (Homo sapiens, UniProt P10398); assay: Kinase activity assay, A-Raf
T1 sequence (P10398 1-606): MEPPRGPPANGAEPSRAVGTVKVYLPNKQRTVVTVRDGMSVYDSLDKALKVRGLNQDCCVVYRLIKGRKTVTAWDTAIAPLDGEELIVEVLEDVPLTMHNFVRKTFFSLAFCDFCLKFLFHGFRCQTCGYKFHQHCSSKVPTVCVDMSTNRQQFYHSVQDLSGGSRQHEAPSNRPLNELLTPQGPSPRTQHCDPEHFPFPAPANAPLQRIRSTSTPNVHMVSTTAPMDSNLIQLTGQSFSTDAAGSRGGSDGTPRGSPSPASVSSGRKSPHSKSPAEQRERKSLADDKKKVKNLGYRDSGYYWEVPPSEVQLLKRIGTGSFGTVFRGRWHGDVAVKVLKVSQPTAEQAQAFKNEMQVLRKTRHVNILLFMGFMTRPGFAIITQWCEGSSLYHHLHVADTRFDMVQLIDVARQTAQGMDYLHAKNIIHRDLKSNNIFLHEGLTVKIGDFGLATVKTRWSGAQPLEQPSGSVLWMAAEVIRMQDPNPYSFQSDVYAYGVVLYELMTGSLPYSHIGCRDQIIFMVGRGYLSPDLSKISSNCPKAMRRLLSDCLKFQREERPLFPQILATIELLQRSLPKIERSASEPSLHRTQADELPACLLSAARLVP

C-Raf = C-Raf (Homo sapiens, UniProt P04049); assay: Kinase activity assay, C-Raf
Src = Src (Homo sapiens, UniProt P12931); assay: Kinase activity assay, Src
Kdr = Kdr (Homo sapiens, UniProt P35968); assay: Kinase activity assay, Kdr

Measured: IC50

B-Raf V600E, sequence (P15056 whole entry V600E): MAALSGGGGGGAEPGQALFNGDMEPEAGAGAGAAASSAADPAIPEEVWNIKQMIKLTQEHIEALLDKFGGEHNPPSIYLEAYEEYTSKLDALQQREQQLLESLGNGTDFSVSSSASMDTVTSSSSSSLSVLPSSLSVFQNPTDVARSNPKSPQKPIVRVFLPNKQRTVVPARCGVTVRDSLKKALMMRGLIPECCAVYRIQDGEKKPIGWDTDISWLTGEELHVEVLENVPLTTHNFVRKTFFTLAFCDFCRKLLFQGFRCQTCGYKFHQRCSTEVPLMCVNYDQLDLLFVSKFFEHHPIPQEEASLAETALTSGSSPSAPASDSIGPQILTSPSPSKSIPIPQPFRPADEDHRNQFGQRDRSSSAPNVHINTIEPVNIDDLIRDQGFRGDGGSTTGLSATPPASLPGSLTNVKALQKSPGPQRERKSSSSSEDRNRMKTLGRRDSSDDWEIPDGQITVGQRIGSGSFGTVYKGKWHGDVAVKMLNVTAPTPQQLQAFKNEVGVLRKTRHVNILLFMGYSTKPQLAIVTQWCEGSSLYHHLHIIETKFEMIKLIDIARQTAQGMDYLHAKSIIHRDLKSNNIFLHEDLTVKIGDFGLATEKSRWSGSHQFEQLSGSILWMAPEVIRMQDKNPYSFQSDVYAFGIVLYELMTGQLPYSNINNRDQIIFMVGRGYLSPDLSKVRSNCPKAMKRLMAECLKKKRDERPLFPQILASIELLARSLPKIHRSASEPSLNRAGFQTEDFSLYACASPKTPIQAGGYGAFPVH
B-Raf, sequence (P15056 whole entry): as the sequence (P15056 whole entry V600E) above, with E600V counted along it
Src, sequence (P12931 whole entry): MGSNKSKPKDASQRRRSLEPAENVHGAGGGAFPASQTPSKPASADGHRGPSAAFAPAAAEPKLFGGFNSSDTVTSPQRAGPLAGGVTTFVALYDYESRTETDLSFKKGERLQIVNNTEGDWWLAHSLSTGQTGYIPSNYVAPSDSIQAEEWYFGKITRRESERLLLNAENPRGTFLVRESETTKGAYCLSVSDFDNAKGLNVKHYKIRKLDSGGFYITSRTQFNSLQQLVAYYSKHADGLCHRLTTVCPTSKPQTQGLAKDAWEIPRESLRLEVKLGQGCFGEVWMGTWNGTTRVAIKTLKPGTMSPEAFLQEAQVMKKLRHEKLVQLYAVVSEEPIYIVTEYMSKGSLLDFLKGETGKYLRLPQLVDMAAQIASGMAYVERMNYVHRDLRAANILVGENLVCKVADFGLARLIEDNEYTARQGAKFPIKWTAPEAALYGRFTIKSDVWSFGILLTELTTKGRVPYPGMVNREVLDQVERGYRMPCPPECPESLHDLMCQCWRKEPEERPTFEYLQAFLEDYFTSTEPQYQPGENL
Kdr, sequence (P35968 20-1356): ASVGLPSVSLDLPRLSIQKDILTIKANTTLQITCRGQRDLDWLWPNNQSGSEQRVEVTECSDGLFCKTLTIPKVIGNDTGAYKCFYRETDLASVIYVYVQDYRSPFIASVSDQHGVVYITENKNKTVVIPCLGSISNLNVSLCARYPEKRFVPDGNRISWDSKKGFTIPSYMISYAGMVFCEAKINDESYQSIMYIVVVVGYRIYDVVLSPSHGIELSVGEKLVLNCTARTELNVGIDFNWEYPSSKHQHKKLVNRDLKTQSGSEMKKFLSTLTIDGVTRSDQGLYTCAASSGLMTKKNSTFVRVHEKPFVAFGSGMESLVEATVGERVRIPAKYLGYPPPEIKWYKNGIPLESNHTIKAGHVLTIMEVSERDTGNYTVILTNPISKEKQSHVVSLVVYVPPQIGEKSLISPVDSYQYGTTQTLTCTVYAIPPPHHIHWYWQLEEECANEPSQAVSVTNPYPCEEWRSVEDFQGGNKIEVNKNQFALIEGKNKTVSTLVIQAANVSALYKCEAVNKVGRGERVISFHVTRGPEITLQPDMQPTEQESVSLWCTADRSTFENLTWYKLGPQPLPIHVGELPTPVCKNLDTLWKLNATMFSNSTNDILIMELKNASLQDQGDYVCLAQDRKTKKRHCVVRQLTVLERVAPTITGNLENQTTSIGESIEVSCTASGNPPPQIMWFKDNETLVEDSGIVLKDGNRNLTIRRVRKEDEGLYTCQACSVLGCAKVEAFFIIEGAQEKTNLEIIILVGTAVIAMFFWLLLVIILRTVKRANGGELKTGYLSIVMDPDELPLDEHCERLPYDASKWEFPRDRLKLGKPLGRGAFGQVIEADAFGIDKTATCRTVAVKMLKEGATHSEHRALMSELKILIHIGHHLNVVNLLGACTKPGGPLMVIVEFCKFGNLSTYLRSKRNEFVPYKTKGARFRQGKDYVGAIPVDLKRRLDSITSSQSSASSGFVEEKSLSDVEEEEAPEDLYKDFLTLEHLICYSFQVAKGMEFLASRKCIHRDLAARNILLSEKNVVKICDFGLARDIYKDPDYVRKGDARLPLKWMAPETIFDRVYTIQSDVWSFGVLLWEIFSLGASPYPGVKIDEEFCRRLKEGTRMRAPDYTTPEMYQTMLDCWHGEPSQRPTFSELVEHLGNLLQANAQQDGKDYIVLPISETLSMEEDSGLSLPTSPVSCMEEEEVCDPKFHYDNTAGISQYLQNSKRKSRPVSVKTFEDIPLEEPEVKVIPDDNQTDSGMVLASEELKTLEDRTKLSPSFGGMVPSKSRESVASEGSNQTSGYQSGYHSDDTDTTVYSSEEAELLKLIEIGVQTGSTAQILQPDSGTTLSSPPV
C-Raf, sequence (P04049 whole entry): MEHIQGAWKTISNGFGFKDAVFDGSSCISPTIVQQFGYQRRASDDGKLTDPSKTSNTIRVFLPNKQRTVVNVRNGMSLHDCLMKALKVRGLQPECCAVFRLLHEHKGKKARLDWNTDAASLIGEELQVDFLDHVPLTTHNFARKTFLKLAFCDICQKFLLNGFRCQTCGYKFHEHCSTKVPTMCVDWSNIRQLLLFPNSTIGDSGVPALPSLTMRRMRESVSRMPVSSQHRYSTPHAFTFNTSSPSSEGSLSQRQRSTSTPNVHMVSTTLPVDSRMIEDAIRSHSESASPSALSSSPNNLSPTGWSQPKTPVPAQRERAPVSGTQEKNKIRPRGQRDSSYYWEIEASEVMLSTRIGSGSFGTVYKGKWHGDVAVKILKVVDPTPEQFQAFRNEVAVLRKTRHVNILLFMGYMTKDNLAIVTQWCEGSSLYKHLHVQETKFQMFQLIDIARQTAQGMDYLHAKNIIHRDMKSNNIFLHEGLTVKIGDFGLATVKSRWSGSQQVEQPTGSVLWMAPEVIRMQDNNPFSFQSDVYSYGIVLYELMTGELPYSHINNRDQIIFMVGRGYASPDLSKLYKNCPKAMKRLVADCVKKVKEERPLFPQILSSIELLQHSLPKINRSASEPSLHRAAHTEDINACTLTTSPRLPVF
Kit, sequence (P10721 26-976): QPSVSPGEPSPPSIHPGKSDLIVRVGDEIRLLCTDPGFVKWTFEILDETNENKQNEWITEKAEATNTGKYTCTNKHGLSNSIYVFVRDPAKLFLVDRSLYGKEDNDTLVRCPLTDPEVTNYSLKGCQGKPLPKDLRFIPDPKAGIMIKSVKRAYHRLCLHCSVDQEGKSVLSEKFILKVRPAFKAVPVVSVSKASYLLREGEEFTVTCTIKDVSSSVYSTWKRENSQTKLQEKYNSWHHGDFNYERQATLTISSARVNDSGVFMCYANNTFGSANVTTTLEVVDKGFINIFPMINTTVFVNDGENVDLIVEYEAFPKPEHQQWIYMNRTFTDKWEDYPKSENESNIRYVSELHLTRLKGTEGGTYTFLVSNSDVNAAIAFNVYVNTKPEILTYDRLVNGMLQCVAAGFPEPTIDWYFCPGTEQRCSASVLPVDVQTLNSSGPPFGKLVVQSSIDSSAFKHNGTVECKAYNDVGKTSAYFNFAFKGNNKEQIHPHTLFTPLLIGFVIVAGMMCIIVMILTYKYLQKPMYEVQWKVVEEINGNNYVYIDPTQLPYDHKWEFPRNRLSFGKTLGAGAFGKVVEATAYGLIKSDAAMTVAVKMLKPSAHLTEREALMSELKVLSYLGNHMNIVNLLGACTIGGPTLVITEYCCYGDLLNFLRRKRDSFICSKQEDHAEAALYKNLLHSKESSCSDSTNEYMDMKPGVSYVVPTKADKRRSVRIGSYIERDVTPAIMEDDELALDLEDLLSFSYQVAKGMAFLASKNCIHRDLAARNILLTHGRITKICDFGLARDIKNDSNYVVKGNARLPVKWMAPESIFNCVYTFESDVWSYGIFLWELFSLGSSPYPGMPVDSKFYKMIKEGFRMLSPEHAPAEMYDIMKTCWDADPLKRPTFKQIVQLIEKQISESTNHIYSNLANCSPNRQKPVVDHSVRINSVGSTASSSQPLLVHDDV

N#Cc1ccnc2[nH]cc(C(=O)c3c(F)ccc(NS(=O)(=O)c4ccc(F)cc4)c3F)c12 [P-2035, N-[3-(4-Cyano-1H-pyrrolo[2,3-b]pyridine-3-carbonyl)-2,4-difluoro-phenyl]-4-fluoro-benzenesulfonamide]
not listed: Src | Kdr
≤ 10 µM: all other assays above

N#Cc1cnc2[nH]cc(C(=O)c3cccc(NS(=O)(=O)c4ccccc4)c3F)c2c1 [P-2056, N-[3-(5-Cyano-1H-pyrrolo[2,3-b]pyridine-3-carbonyl)-2-fluoro-phenyl]-benzenesulfonamide]
not listed: Kit | Kdr
≤ 10 µM: all other assays above

N#Cc1cnc2[nH]cc(C(=O)c3cccc(NS(=O)(=O)c4ccc(C(F)(F)F)cc4)c3F)c2c1 [P-2057, N-[3-(5-Cyano-1H-pyrrolo[2,3-b]pyridine-3-carbonyl)-2-fluoro-phenyl]-4-trifluoromethyl-benzenesulfonamide]
not listed: Kit | Kdr
≤ 10 µM: all other assays above

N#Cc1ccnc2[nH]cc(C(=O)c3c(F)ccc(NS(=O)(=O)c4cccnc4)c3F)c12 [P-2077, Pyridine-3-sulfonic acid [3-(4-cyano-1H-pyrrolo[2,3-b]pyridine-3-carbonyl)-2,4-difluoro-phenyl]-amide]
≤ 10 µM: B-Raf | B-Raf V600E | A-Raf | C-Raf

N#Cc1ccnc2[nH]cc(C(=O)c3c(F)ccc(NS(=O)(=O)c4ccccn4)c3F)c12 [P-2078, Pyridine-2-sulfonic acid [3-(4-cyano-1H-pyrrolo[2,3-b]pyridine-3-carbonyl)-2,4-difluoro-phenyl]-amide]
not listed: Kit | Kdr
≤ 10 µM: all other assays above

CCCS(=O)(=O)Nc1ccc(F)c(C(=O)c2c[nH]c3nccc(Cl)c23)c1F [P-2208, Propane-1-sulfonic acid [3-(4-chloro-1H-pyrrolo[2,3-b]pyridine-3-carbonyl)-2,4-difluoro-phenyl]-amide]
not listed: Kit | Src
≤ 10 µM: all other assays above

CCCS(=O)(=O)Nc1ccc(F)c(C(=O)c2c[nH]c3ncc(CCC(=O)NOC)cc23)c1F [P-2243, 3-{3-[2,6-Difluoro-3-(propane-1-sulfonylamino)-benzoyl]-1H-pyrrolo[2,3-b]pyridin-5-yl}-N-methoxy-propionamide]
not listed: Kit | Src
≤ 10 µM: all other assays above

CCCS(=O)(=O)Nc1ccc(F)c(C(=O)c2c[nH]c3ncc(CCC(=O)N(CC)CC)cc23)c1F [P-2255, 3-{3-[2,6-Difluoro-3-(propane-1-sulfonylamino)-benzoyl]-1H-pyrrolo[2,3-b]pyridin-5-yl}-N,N-diethyl-propionamide]
not listed: Kit | Src
≤ 10 µM: all other assays above

CCCS(=O)(=O)Nc1ccc(F)c(C(=O)c2c[nH]c3ncc(CN(CC)CC)cc23)c1F [P-2258, Propane-1-sulfonic acid [3-(5-diethylaminomethyl-1H-pyrrolo[2,3-b]pyridine-3-carbonyl)-2,4-difluoro-phenyl]-amide]
≤ 10 µM: B-Raf | B-Raf V600E | A-Raf | C-Raf

CCCS(=O)(=O)Nc1ccc(F)c(C(=O)c2c[nH]c3ncc(CN4CCCC4)cc23)c1F [P-2259, Propane-1-sulfonic acid [2,4-difluoro-3-(5-pyrrolidin-1-ylmethyl-1H-pyrrolo[2,3-b]pyridine-3-carbonyl)-phenyl]-amide]
≤ 10 µM: B-Raf | B-Raf V600E | A-Raf | C-Raf

CCS(=O)(=O)Nc1ccc(F)c(C(=O)c2c[nH]c3nccc(C#N)c23)c1F [P-2283, Ethanesulfonic acid [3-(4-cyano-1H-pyrrolo[2,3-b]pyridine-3-carbonyl)-2,4-difluoro-phenyl]-amide]
≤ 10 µM: B-Raf | B-Raf V600E | A-Raf | C-Raf

CC(C)S(=O)(=O)Nc1ccc(F)c(C(=O)c2c[nH]c3nccc(Cl)c23)c1F [P-2284, Propane-2-sulfonic acid [3-(4-chloro-1H-pyrrolo[2,3-b]pyridine-3-carbonyl)-2,4-difluoro-phenyl]-amide]
≤ 10 µM: B-Raf V600E | Src | A-Raf | C-Raf

CC(C)S(=O)(=O)Nc1ccc(F)c(C(=O)c2c[nH]c3nccc(C#N)c23)c1F [P-2285, Propane-2-sulfonic acid [3-(4-cyano-1H-pyrrolo[2,3-b]pyridine-3-carbonyl)-2,4-difluoro-phenyl]-amide]
≤ 10 µM: B-Raf | B-Raf V600E | A-Raf | C-Raf

CCCC(C)S(=O)(=O)Nc1ccc(F)c(C(=O)c2c[nH]c3ncc(C#N)cc23)c1F (stereo not drawn) [P-2314, Pentane-2-sulfonic acid [3-(5-cyano-1H-pyrrolo[2,3-b]pyridine-3-carbonyl)-2,4-difluoro-phenyl]-amide]
≤ 10 µM: B-Raf V600E | Kit | A-Raf | C-Raf

CCCC(C)S(=O)(=O)Nc1ccc(F)c(C(=O)c2c[nH]c3nccc(OC)c23)c1F (stereo not drawn) [P-2316, Pentane-2-sulfonic acid [2,4-difluoro-3-(4-methoxy-1H-pyrrolo[2,3-b]pyridine-3-carbonyl)-phenyl]-amide]
≤ 10 µM: B-Raf V600E | Src | A-Raf

CCC(C)S(=O)(=O)Nc1ccc(F)c(C(=O)c2c[nH]c3ncc(C#N)cc23)c1F (stereo not drawn) [P-2317, Butane-2-sulfonic acid [3-(5-cyano-1H-pyrrolo[2,3-b]pyridine-3-carbonyl)-2,4-difluoro-phenyl]-amide]
not listed: Src | Kdr
≤ 10 µM: all other assays above

CC(C)CS(=O)(=O)Nc1ccc(F)c(C(=O)c2c[nH]c3nccc(C#N)c23)c1F [P-2320, 2-Methyl-propane-1-sulfonic acid [3-(4-cyano-1H-pyrrolo[2,3-b]pyridine-3-carbonyl)-2,4-difluoro-phenyl]-amide]
not listed: Kit | Src
≤ 10 µM: all other assays above

N#Cc1ccnc2[nH]cc(C(=O)c3c(F)ccc(NS(=O)(=O)CCC(F)(F)F)c3F)c12 [P-2332, 3,3,3-Trifluoro-propane-1-sulfonic acid [3-(4-cyano-1H-pyrrolo[2,3-b]pyridine-3-carbonyl)-2,4-difluoro-phenyl]-amide]
not listed: Kit | Kdr
≤ 10 µM: all other assays above

N#Cc1cnc2[nH]cc(C(=O)c3c(F)ccc(NS(=O)(=O)CC(F)(F)F)c3F)c2c1 [P-2336, 2,2,2-Trifluoro-ethanesulfonic acid [3-(5-cyano-1H-pyrrolo[2,3-b]pyridine-3-carbonyl)-2,4-difluoro-phenyl]-amide]
not listed: Kit | Kdr
≤ 10 µM: all other assays above

O=C(c1c(F)ccc(NS(=O)(=O)C2CCC2)c1F)c1c[nH]c2nccc(Cl)c12 [P-2363, Cyclobutanesulfonic acid [3-(4-chloro-1H-pyrrolo[2,3-b]pyridine-3-carbonyl)-2,4-difluoro-phenyl]-amide]
not listed: Kit | Src
≤ 10 µM: all other assays above

O=C(c1c(F)ccc(NS(=O)(=O)C2CCCC2)c1F)c1c[nH]c2nccc(Cl)c12 [P-2368, Cyclopentanesulfonic acid [3-(4-chloro-1H-pyrrolo[2,3-b]pyridine-3-carbonyl)-2,4-difluoro-phenyl]-amide]
not listed: Kit | Kdr
≤ 10 µM: all other assays above

N#Cc1ccnc2[nH]cc(C(=O)c3c(F)ccc(NS(=O)(=O)C4CCC4)c3F)c12 [P-2370, Cyclobutanesulfonic acid [3-(4-cyano-1H-pyrrolo[2,3-b]pyridine-3-carbonyl)-2,4-difluoro-phenyl]-amide]
not listed: Kit | Src
≤ 10 µM: all other assays above

N#Cc1ccnc2[nH]cc(C(=O)c3c(F)ccc(NS(=O)(=O)N4CCOCC4)c3F)c12 [P-2395, Morpholine-4-sulfonic acid [3-(4-cyano-1H-pyrrolo[2,3-b]pyridine-3-carbonyl)-2,4-difluoro-phenyl]-amide]
≤ 10 µM: B-Raf | B-Raf V600E | A-Raf | C-Raf
